The results in this text go back to patent US20150056166A1, “FLAVONE DERIVATIVES AND THEIR USE” (Twincore GmbH, priority 2012, published 2015).

The test system of data set [1] is FF-Jc1 reporter virus. Description: HCV cell entry, FF-Jc1 reporter virus in Huh-7.5 cells (FIG. 9). It is filed as cell-based. As to conditions: Hepatitis C virus, Huh7.5. Here is the method: FIG. 9: Comparison of flavones 13, 14 and 15. Huh-7.5 cells were seeded in 12-well plates and infected for 4 h with FF-Jc1 reporter virus +/−inhibitor (ranging from 0-100 μM final concentration). 72 h after infection, the cells were lysed and the reporter activity measured. The mean values of 6 measurements are shown in the graph. Fluorine analogues of flavone 13, flavones 14 (BJ751/1) and 15 (BJ755-3 I), inhibit HCV cell entry with 8-10-fold increased effects compared to those of the flavone 13.

Data set [2] concerns H77c (GT1a). Description: Luciferase infection assay, chimeric reporter virus H77c/1a/R2a in Huh7-Lunet/CD81 cells. It is filed as cell-based, HCV. As to conditions: Hepatitis C virus, Huh-7, 72 h.
The test system of data set [3] is cell culture derived particles from genotype 1a, 1b, 2b, 3a, 4a, 5a and 6a. Description: Genotype panel of chimeric reporter viruses, summary statement. It is filed as cell-based, HCV. As to conditions: Hepatitis C virus.
Data set [4] deals with Jc1. The data set is described as follows: HCV virus assembly/release, intra- and extracellular core protein after Jc1 RNA transfection. It is filed as cell-based. The settings on record: up to a dose of 20 μM, 48 h after transfection. The procedure: (A) Huh7-Lunet/CD81 cells were transfected with the subgenomic luciferase replicon depicted at the top. Drugs were added 4 h post transfection and the level of HCV RNA translation and RNA replication was quantified by luciferase assays 72 h post transfection. Mean values of three independent experiments each with quadruplicate measurements including the standard deviation are shown. (B) Cells were transfected with the Jc1 chimera depicted above and drugs were added 4 h later. HCV virus release in the presence or absence of given compounds was determined by quantification of intracellular and extracellular core protein levels using a core-specific ELISA. Mean values of three independent experiments with single measurements including the error range are given. (C) Huh7-Lunet/CD81 cells were inoculated with Luc-Jc1 reporter viruses prepared in the absence of drugs. BJ486K was added to the cells only prior to inoculation (black), only during inoculation (grey) or selectively directly after inoculation (white) as schematically depicted at the top. Infectivity was determined 72 h later by luciferase assays and compared to DMSO-treated controls. Mean values of three independent experiments each with quadruplicate measurements including the standard deviation are shown.
Huh7-Lunet/CD81 cells were transfected with Jc1 RNA and seeded on a 6-well plate. Compounds were added 4 h later. At 48 h after transfection, cell culture supernatant was harvested and used for measuring the extracellular core amount. Cells were washed once with PBS, scraped and centrifuged for 5 min at 1000×g. Cell pellets were resuspended in 500 μl fresh culture fluid and subjected to three cycles of freeze and thaw using liquid nitrogen and a 37° C. thermo block. Samples were than centrifuged at 10,000×g for 10 min to remove cell debris and the core amount was measured (intracellular core protein) using the […] […]
To determine whether BJ486K affects virus assembly or release we transfected Huh7-Lunet/CD81 cells with Jc1 RNA and quantified intra- and extracellular levels of core protein 48 h after transfection (FIG. 2B).

For data set [5], the system named is Luc-Jc1 reporter viruses. The data set is described as follows: Drug added before, during or after inoculation with Luc-Jc1 reporter virus (FIG. 2C). The settings on record: luciferase 72 h. It is filed as cell-based, HCV. The procedure: (A) Huh7-Lunet/CD81 cells were transfected with the subgenomic luciferase replicon depicted at the top. Drugs were added 4 h post transfection and the level of HCV RNA translation and RNA replication was quantified by luciferase assays 72 h post transfection. Mean values of three independent experiments each with quadruplicate measurements including the standard deviation are shown. (B) Cells were transfected with the Jc1 chimera depicted above and drugs were added 4 h later. HCV virus release in the presence or absence of given compounds was determined by quantification of intracellular and extracellular core protein levels using a core-specific ELISA. […] Infectivity was determined 72 h later by luciferase assays and compared to DMSO-treated controls. […]
Huh7-Lunet/CD81 cells were infected with reporter virus particles essentially as described recently (Koutsoudakis et al., J. Virol. 2006; 80: 5308-5320). […] Cells were inoculated for 4 h at 37° C., viral inoculum was replaced by fresh culture fluid and infection was quantified 48 h or 72 h after virus inoculation using luciferase assays. […] Cells infected with the renilla reporter virus were lysed in 200 μl lysis buffer (Promega, Mannheim, Germany) and after addition of the luciferase substrate (1 μM of coelenterazin (P. J. K., Kleinblittersdorf, Germany) in PBS) measured for 1 s in a luminometer (Lumat LB9507, Berthold, Freiburg, Germany). […]

For data set [6], the system named is Jc1. Description: Infection of DMSO-differentiated Huh7-Lunet/CD81 cells with Jc1, limiting dilution assay. As to conditions: virus production monitored for 12 days. It is filed as cell-based, HCV. The source says: Next, we investigated if combination of CsA, an inhibitor of HCV RNA-replication in vitro and in vivo and also an immunosuppressive drug used in the HCV post-transplant setting, with BJ486K would increase antiviral potency. To this end, we challenged Huh7-Lunet/CD81 cells differentiated by DMSO-treatment with the highly infectious Jc1 chimera in the presence of CsA, BJ486K or a combination of both drugs (FIG. 5). […] To obtain a more quantitative measure for the combined antiviral effect of BJ486K and CsA, we inoculated nave Huh7-Lunet/CD81 cells with JcR-2a virus together with varying doses of both drugs (FIG. 6A).

Data set [7] in a line: Bioavailability of BJ486K in mice, plasma levels by LC-MS/MS. It is filed as in vivo. The procedure: FIG. 10: Oral bioavailability of BJ486K in mice. A single dose of 0.25 mg/kg of BJ486K was administered through oral (A) or intravenous route (B). Plasma levels of BJ486K were determined 5, 15, 30, 60, 120 and 180 minutes post administration. Mean values of two animals including the standard errors are given. (C)
Bioavailability of BJ486K. Mice (24 in total) were treated either orally or intraveniously with a single dose of 0.25 mg/kg of the inhibitor (solved in saline/10% cremophor EL). At different time points after inhibitor administration (5 min, 15 min, 30 min, 60 min, 120 min or 180 min) two mice from each group were sacrified and the blood was centrifuged to obtain the plasma, which was stored at −80° C. until further examination. 400 μl of each plasma sample was mixed with equal amount of a 2% trifluoroacetic acid and loaded on a SPE Strata C18 column (equilibrated with 1 ml methanol and 1 ml 1% trifluoroacetic acid) for solid phase extraction of the plasma. After several washing steps (1% trifluoroacetic acid and water), the samples were eluted with acetonitrile and dried. […] Samples were further analyzed with a LC-MS/MS (triple quadrupole mass spectrometer LCMS 8030 Shimadzu), which was calibrated at the day of measurement. […] Bioavailability was calculated by dividing the area under curve (AUC) for oral route by the AUC for intravenous route.

For the molecule `COc1ccc(-c2cc(=O)c3c(O)c(O)c(OC)cc3o2)cc1` [BJ486K, 5,6-Dihydroxy-7-methoxy-2-(4-methoxy-phenyl)-chromen-4-one], in data set [1], the concentration for a half-maximal effect (EC50) is about 2 µM. In data set [2], this molecule registered an IC50 of 2.46 µM and a 90% effect concentration (IC90) of 11.6 µM. The molecule further returned an IC50 in data set [3] of under 4.2 µM. Also, in data set [4], the “intracellular and extracellular core protein levels” value is “reduced neither intracellular nor extracellular core protein levels”. In addition, the “interference with HCV infection by time of addition” value in data set [5] was “only interfered with HCV infection when the drug was present during virus inoculation”. Besides, the “effect on infection of differentiated cells, in words” value in data set [6] is listed as “reduced infection almost down to background levels”. Besides, in data set [7] (mice), the bio-availability entry is “rather low”. The half-life in data set [7] (mouse, plasma, in mice) was about 7 min.
